Measured values taken from patent US20210228736A1, “PATHOGEN CONTROL COMPOSITIONS AND USES THEREOF” (Flagship Pioneering Innovations VI, LLC, priority 2018, published 2021).

Columns and labels:
[1] = tested on: E. coli; experiment: Treatment with DOX-loaded grapefruit PMPs, kinetic OD 600 nm (E. coli); format: cell-based, Escherichia coli
Procedure: (§1) Bacteria and yeast strains were maintained as indicated by the supplier: E. coli (ATCC, #25922) was grown on Trypticase Soy Agar/broth at 37° C., Pseudomonas aeruginosa (ATCC) was grown on Tryptic soy Agar/broth with […] rifampicin at 37° C., and Saccharomyces cerevisiae (ATCC, #9763) was grown on yeast extract peptone dextrose broth (YPD) and maintained at 30° C. Prior to treatment, fresh one day cultures were grown overnight, the OD (600 nm) was adjusted to 0.1 OD with medium prior to use, and bacteria/yeast were transferred to a 96 well plate for treatment (duplicate samples, 100 μl/well). […] Plates were covered with aluminum foil, and incubated at 37° C. (E. coli, P. aeruginosa), or 30° C. (S. cerevisiae) and agitated at 220 rpm.
(§2) A kinetic Absorbance measurement at 600 nm was performed on a SpectraMax® spectrophotometer to monitor the OD of the cultures at t=0h, t=1h, t=2h, t=3h, t=4.5h, t=16h (E. coli, P. aeruginosa) or t=0.5h, t=1.5h, t=2.5h, t=3.5h, t=4h, t=16h (S. cerevisiae). […] To compare the cytotoxic effect of PMP-DOX treatment on different bacterial and yeast strains, within each treatment group the relative OD was determined as compared to the untreated control (set to 100%).

[2] = tested on: Saccharomyces cerevisiae; experiment: Treatment with DOX-loaded grapefruit PMPs, kinetic OD 600 nm (S. cerevisiae); format: cell-based
Procedure: as §1, §2

[3] = tested on: Pseudomonas aeruginosa; experiment: Treatment with DOX-loaded grapefruit PMPs, kinetic OD 600 nm (P. aeruginosa); format: cell-based
Procedure: as §1, §2

Structure (SMILES): COc1cccc2c1C(=O)c1c(O)c3c(c(O)c1C2=O)C[C@@](O)(C(=O)CO)C[C@@H]3O[C@H]1C[C@H](N)[C@H](O)[C@H](C)O1 [free doxorubicin, doxorubicin]
- onset of cytotoxicity compared with PMP-DOX at the same dosages [1]: cytotoxicity is induced earlier than with PMP-DOX delivery
- onset of cytotoxicity compared with PMP-DOX at the same dosages [2]: cytotoxicity is induced earlier than with PMP-DOX delivery
- onset of cytotoxicity compared with PMP-DOX at the same dosages [3]: cytotoxicity is induced earlier than with PMP-DOX delivery
